{"source": "paper PMC9152706", "about": "“Identification of the target and mode of action for the prokaryotic nucleotide excision repair inhibitor ATBC” (Bioscience Reports, 2022)", "target": "T1, UvrA (Escherichia coli, UniProt P0A698)", "T1 construct": "full-length, C-terminal flexible linker, AviTag, TEV site and His tag; Ni-NTA purified from E. coli (BL21 delta-uvrA delta-uvrB used for expression); unlabelled; homodimer", "T1 sequence (P0A698 1-940)": "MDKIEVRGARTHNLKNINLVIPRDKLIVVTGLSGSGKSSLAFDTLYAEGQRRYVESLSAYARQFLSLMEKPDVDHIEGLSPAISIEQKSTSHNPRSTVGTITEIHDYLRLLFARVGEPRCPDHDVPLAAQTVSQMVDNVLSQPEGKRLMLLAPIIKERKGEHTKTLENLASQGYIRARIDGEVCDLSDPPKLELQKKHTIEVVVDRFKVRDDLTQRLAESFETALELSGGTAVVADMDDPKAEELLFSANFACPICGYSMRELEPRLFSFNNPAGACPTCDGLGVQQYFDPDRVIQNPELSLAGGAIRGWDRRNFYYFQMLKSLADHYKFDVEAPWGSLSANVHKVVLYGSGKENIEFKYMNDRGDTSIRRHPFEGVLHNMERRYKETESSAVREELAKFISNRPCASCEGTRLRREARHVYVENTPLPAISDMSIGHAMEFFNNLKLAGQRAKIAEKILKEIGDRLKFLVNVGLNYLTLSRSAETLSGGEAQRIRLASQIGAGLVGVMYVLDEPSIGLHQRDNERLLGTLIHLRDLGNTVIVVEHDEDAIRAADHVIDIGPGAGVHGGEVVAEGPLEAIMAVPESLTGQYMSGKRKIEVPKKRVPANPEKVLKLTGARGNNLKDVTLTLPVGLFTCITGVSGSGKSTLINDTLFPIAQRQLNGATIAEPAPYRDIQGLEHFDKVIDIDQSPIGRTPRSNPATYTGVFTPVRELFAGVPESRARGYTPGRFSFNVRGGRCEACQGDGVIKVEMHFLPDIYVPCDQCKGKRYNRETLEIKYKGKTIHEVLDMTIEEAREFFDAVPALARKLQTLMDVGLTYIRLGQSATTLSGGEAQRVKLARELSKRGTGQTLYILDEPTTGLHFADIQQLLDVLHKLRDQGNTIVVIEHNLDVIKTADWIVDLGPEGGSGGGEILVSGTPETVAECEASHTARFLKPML", "assay": "NADH-linked ATPase assay (pyruvate kinase / lactate dehydrogenase)", "format": "biochemical", "details": "50 µM ATBC, 5 min preincubation; 1 mM ATP; 50 mM Tris-HCl pH 7.5, 50 mM KCl, 10 mM MgCl2; room temperature; poorly soluble, nominal concentration; ATPase site proposed from docking", "data": [{"smiles": "Nc1nnc(-c2cc3c(ccc4ccccc43)oc2=O)s1", "note": "[ATBC, 2-(5-amino-1,3,4-thiadiazol-2-yl)benzo(f)chromen-3-one]", "values": [{"measurement": "% reduction of kcat at 50 μM", "value": "~ 70%"}]}]}
